One data set addresses T1, human Kv7.2/7.3 channels (Homo sapiens, UniProt O43525+O43526).
T1 construct: expressed in transfected cells
As to the kind of experiment: Assessment of recombinantly expressed human Kv7.2/7.3 channel activation on SyncroPatch automated patch clamp platform. The note with it: for activation of Kv7.2/7.3 channels as measured by the SyncroPatch platform: FIGS. 2A-2G plots. The format is cell-based. How it is done:
The in vitro effects of a compound of the present application recombinantly expressed human Kv7.2/7.3 channels are assessed on Syncropatch high throughput electrophysiology platform.
Cell Preparations: CHO cells stably expressing human Kv7.2/7.3 channels were cultured in Ham's F-12 media (Hyclone, Cat #SH30022.02) supplemented with 10% Fetal Bovine Serum, 1×MEM non-essential amino acids, and 400m/ml G418 at 37° C. in 5% CO2. On the day of Syncropatch, the cells were washed once in DPBS (Hyclone, Cat #SH30028.03) for approximately 30 seconds. […] 10 ml of cold media (Ham's F-12 media (Hyclone, Cat #SH30022.02) supplemented with 10% Fetal Bovine Serum, 1×MEM non-essential amino acids, and 400m/ml G418) was added to inactivate Trypsin. The cells were then triturated until a single cell suspension was achieved, and the cell count was performed. The cells were then diluted to a concentration of 5×10^5/ml and placed into the “cell hotel” on the deck of the Syncropatch at 10° C. for about 1 hour to recover. 40 μL of the cell suspension was dispensed into each well of a 384-well Syncropatch chip by the onboard pipettor at the beginning of each Syncropatch assay.
Eight-point dose response curves were created by performing semi-log serial dilutions from 10 mM compound stock solutions in 100% DMSO. […] Final DMSO concentration in the assay was 0.3%. Final assay test concentrations were 30 μM to 0.01 μM or 1 μM to 0.0003 μM. Negative (0.3% DMSO) and positive (30 μM ML213) controls were included in each test run to assess pharmacological responsiveness.
Assessment Protocol: Electrophysiological studies of the compounds were performed using the Nanion SyncroPatch automated patch clamp platform.
Kv7 channels were evaluated using a voltage protocol in which cells were voltage-clamped at a holding potential of −110 mV. Potassium currents were activated with a series of voltage steps from −110 mV to +50 mV in 10 mV intervals with 5.5 seconds between successive voltage steps. Each voltage step was 3 seconds in duration and immediately followed by a 1 second voltage step to −120 mV to generate an inward “tail” current to allow construction of activation (G-V) curves by plotting normalized peak tail current versus the potential of the activating voltage step.
Data Analysis: Data was collected on the Syncropatch platform using PatchControl software (Nanion) and processed and analyzed using DataControl Software (Nanion). Normalized percent activation was calculated and activation curves were fit with a Boltzmann function to determine the midpoint voltage of activation (G-V midpoint) for both pre-compound and post-compound conditions for each of the 384-wells of a sealchip with Pipeline Pilot (Accelrys). The difference in G-V midpoint between pre-compound and post-compound conditions (A V0.5) was plotted as a function of concentration and concentration-response curves were fit with a three-parameter logistic equation {Y=Bottom+(Top−Bottom)/(1+10^(Log EC50−X))} for determination of the EC50 (Graphpad Prism).
(In general: The patch-clamp technique gives a direct electrical read-out from membranes.)

The conditions of data set [1]: in vivo; cited from earlier work.
The mark [2] stands for this setting: concentration-dependent shift in G-V midpoint of activation, CHO cells stably expressing human Kv7.2/7.3, SyncroPatch, read-out: EC50 (95% CI).

Where two headings read alike, the source gives them in different places.

T1 sequence (O43525 whole entry): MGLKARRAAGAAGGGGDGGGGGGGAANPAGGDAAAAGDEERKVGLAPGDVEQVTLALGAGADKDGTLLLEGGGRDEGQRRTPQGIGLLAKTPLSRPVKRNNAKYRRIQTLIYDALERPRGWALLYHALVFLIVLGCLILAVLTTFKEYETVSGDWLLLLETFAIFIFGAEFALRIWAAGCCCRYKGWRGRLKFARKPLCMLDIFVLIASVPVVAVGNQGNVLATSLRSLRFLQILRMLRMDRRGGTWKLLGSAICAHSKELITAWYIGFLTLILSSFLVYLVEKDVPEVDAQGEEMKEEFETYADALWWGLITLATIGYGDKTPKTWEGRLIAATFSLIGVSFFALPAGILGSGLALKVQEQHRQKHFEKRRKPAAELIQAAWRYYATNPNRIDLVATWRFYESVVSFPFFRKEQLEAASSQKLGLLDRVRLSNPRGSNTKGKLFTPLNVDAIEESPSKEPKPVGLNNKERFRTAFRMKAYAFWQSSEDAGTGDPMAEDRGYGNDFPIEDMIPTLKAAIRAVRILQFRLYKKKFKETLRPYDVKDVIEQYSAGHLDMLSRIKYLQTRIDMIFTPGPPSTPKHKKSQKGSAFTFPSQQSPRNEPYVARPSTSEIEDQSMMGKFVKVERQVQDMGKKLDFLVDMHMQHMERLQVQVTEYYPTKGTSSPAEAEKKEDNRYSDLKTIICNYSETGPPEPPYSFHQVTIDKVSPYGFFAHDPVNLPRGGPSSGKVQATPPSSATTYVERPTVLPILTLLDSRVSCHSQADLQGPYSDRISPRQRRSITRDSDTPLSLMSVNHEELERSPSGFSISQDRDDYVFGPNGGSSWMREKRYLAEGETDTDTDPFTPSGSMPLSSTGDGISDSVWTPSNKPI
T1 sequence (O43526 whole entry): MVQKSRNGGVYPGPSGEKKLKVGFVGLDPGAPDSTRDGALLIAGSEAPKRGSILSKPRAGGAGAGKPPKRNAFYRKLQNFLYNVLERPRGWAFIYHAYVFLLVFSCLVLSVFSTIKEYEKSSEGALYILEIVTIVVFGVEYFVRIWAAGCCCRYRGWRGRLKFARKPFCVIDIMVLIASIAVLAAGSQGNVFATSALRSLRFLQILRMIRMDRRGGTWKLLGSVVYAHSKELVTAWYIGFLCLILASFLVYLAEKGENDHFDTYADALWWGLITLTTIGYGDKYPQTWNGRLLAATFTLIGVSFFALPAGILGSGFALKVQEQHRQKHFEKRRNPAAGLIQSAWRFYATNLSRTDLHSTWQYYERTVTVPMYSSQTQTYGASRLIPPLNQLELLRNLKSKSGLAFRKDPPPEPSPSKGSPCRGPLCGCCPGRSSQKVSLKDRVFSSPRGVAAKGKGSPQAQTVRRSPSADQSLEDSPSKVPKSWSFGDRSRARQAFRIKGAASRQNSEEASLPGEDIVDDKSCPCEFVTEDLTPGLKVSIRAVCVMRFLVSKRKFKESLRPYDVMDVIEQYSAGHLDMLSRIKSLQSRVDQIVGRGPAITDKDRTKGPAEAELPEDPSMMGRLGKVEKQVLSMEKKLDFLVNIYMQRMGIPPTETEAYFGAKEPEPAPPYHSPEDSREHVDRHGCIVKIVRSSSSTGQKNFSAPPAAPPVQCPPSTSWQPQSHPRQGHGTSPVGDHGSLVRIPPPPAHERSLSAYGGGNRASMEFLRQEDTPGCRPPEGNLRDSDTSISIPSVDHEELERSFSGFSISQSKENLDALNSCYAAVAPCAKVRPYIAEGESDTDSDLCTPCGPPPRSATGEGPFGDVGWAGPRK

On to `C#CCN(Cc1ccc(C(F)(F)F)cc1)c1ccc(NC(=O)OCC)c(N)c1F` [Compound 8, ethyl (2-amino-3-fluoro-4-(prop-2-yn-1-yl(4-(trifluoromethyl)benzyl)amino)phenyl)carbamate], for which the “activation of Kv7.2/7.3 channels as measured by the SyncroPatch platform” value (“activation of Kv7.2/7.3 channels” below) at human Kv7.2/7.3 channels was “dose-dependent activation”. The concentration for a half-maximal effect (EC50) on human Kv7.2/7.3 channels (setting [2]) lay in the range of 0.1 to 1 µM.
Regarding `C#CCN(Cc1ccc(C(F)(F)F)cc1)c1ccc(NC(=O)OCC)c(N)c1` [Compound 11, ethyl (2-amino-4-(prop-2-yn-1-yl(4-(trifluoromethyl)benzyl)amino)phenyl)carbamate], the EC50 on human Kv7.2/7.3 channels (setting [2]) lay in the range of 0.1 to 1 µM.
On the same count and under the same terms, with `C=CCN(Cc1ccc(C(F)(F)F)cc1)c1ccc(NC(=O)OCC)c(N)c1F` [Compound 2, ethyl (4-(allyl(4-(trifluoromethyl)benzyl)amino)-2-amino-3-fluorophenyl)carbamate] the figure was 0.1 to 1 µM.
Same read-out and setting: with `CCOC(=O)Nc1ccc(N2CCc3ccc(C(F)(F)F)cc3C2)c(F)c1N` [Compound 18, Ethyl (2-amino-3-fluoro-4-(7-(trifluoromethyl)-3,4-dihydroisoquinolin-2(1H)-yl)phenyl)carbamate] the figure was 0.1 to 1 µM.
Same read-out and setting: with `C#CCN(Cc1cccc(C(F)(F)F)c1)c1ccc(NC(=O)OCC)c(N)c1F` [Compound 9, ethyl (2-amino-3-fluoro-4-(prop-2-yn-1-yl(3-(trifluoromethyl)benzyl)amino)phenyl)carbamate] the figure was 0.1 to 1 µM.
Take `CCOC(=O)Nc1ccc(N2CCc3ccc(F)cc3C2)c(F)c1N` [Compound 20, ethyl (2-amino-3-fluoro-4-(7-fluoro-3,4-dihydroisoquinolin-2(1H)-yl)phenyl)carbamate]: the concentration for a half-maximal effect (EC50) at human Kv7.2/7.3 channels (setting [2]) lay within 0.1 to 1 µM.
Same read-out and setting: next, `CCOC(=O)Nc1ccc(N2CCc3cc(C(F)(F)F)ccc3C2)c(F)c1N` [Compound 19, ethyl (2-amino-3-fluoro-4-(6-(trifluoromethyl)-3,4-dihydroisoquinolin-2(1H)-yl)phenyl)carbamate]: 1 to 5 µM.
Regarding `C#CCN(Cc1ccc(F)cc1)c1ccc(NC(=O)OCC)c(N)c1F` [Compound 7, ethyl (2-amino-3-fluoro-4-((4-fluorobenzyl)(prop-2-yn-1-yl)amino)phenyl)carbamate], on human Kv7.2/7.3 channels, the “activation of Kv7.2/7.3 channels” value was “dose-dependent activation”. In addition, on human Kv7.2/7.3 channels (setting [2]), the half-maximal effective concentration (EC50) lay within 0.1 to 1 µM.
For `C=CCN(Cc1cccc(C(F)(F)F)c1)c1ccc(NC(=O)OCC)c(N)c1` [Compound 6, ethyl (4-(allyl(3-(trifluoromethyl)benzyl)amino)-2-aminophenyl)carbamate], the “activation of Kv7.2/7.3 channels” value at human Kv7.2/7.3 channels is recorded as “dose-dependent activation”. At human Kv7.2/7.3 channels (setting [2]), the EC50 is 0.1 to 1 µM.
On to `C=CCN(Cc1ccc(F)cc1)c1ccc(NC(=O)OCC)c(N)c1F` [Compound 1, ethyl (4-(allyl(4-fluorobenzyl)amino)-2-amino-3-fluorophenyl)carbamate], for which the concentration for a half-maximal effect (EC50) on human Kv7.2/7.3 channels (setting [2]) lay within 1 to 5 µM.
Regarding `CCOC(=O)Nc1ccc(NCc2ccc(F)cc2)cc1N` [Ezogabine, ethyl N-[2-amino-4-[(4-fluorophenyl)methylamino]phenyl]carbamate], the half-life in data set [1] is 8 h.
Take `CCOC(=O)Nc1ccc(N2CCc3ccc(F)cc3C2)cc1N` [Compound 24, ethyl (2-amino-4-(7-fluoro-3,4-dihydroisoquinolin-2(1H)-yl)phenyl)carbamate]: at human Kv7.2/7.3 channels (setting [2]), the EC50 fell in the range of 1 to 5 µM.
`CCOC(=O)Nc1c(N)cc(NCc2ccc(F)cc2)cc1F` [Compound X, reference compound]: on human Kv7.2/7.3 channels, the EC50 was in the range of 0.1 to 1 µM and the “activation of Kv7.2/7.3 channels” value is “dose-dependent activation”.
As to `C#CCN(Cc1ccc(F)cc1)c1ccc(NC(=O)OCC)c(N)c1` [Compound 10, reference compound], the “activation of Kv7.2/7.3 channels” value at human Kv7.2/7.3 channels is on record as “dose-dependent activation”. Further, at human Kv7.2/7.3 channels (setting [2]), the EC50 lay within 1 to 5 µM.
For the compound `C=CCN(Cc1cccc(C(F)(F)F)c1)c1ccc(NC(=O)OCC)c(N)c1F` [Compound 3, ethyl (4-(allyl(3-(trifluoromethyl)benzyl)amino)-2-amino-3-fluorophenyl)carbamate], the EC50 at human Kv7.2/7.3 channels (setting [2]) was in the range of 5 to 25 µM.
On to `CCOC(=O)Nc1ccc(N2CCc3cc(F)ccc3C2)c(F)c1N` [Compound 17, ethyl (2-amino-3-fluoro-4-(6-fluoro-3,4-dihydroisoquinolin-2(1H)-yl)phenyl)carbamate], for which the concentration giving a half-maximal response (EC50) at human Kv7.2/7.3 channels (setting [2]) lay within 0.1 to 1 µM.
Still for that read-out and setting: with `CCOC(=O)Nc1ccc(N2CCc3ccc(C(F)(F)F)cc3C2)cc1N` [Compound 22, ethyl (2-amino-4-(7-(trifluoromethyl)-3,4-dihydroisoquinolin-2(1H)-yl)phenyl)carbamate] the figure was 0.1 to 1 µM; with `CCOC(=O)Nc1ccc(N2CCc3cc(F)ccc3C2)cc1N` [Compound 21, ethyl (2-amino-4-(6-fluoro-3,4-dihydroisoquinolin-2(1H)-yl)phenyl)carbamate], 1 to 5 µM.
For the compound `C#CCN(Cc1cccc(C(F)(F)F)c1)c1ccc(NC(=O)OCC)c(N)c1` [Compound 12, ethyl (2-amino-4-(prop-2-yn-1-yl(3-(trifluoromethyl)benzyl)amino)phenyl)carbamate], the “activation of Kv7.2/7.3 channels” value at human Kv7.2/7.3 channels is reported as “dose-dependent activation”. Moreover, on human Kv7.2/7.3 channels (setting [2]), the EC50 lay in the range of 0.1 to 1 µM.
`C=CCN(Cc1ccc(F)cc1)c1ccc(NC(=O)OCC)c(N)c1` [Compound 4, ethyl (4-(allyl(4-fluorobenzyl)amino)-2-aminophenyl)carbamate]: the “activation of Kv7.2/7.3 channels” value on human Kv7.2/7.3 channels is “dose-dependent activation”. Also, the EC50 at human Kv7.2/7.3 channels (setting [2]) was 0.1 to 1 µM.
Consider `CCOC(=O)Nc1ccc(N2CCc3cc(C(F)(F)F)ccc3C2)cc1N` [Compound 23, ethyl (2-amino-4-(6-(trifluoromethyl)-3,4-dihydroisoquinolin-2(1H)-yl)phenyl)carbamate], for which the 50% effective concentration (EC50) on human Kv7.2/7.3 channels (setting [2]) lay in the range of 1 to 5 µM.

One may read the EC50 as the midpoint of the concentration-response curve. Usually half-life stands for how long it takes for the measured level to halve.

The values above are taken from US11858900B2, “Fluorinated 2-amino-4-(substituted amino)phenyl carbamate derivatives” (OcuTerra Therapeutics, Inc., priority 2016, dated 2024).
